Test [1] deals with CLN3^Δex7/8 neurons. As to the kind of experiment: Mitochondrial autophagy level (mtDNA/nDNA after CCCP and Baf-A1). Format: cell-based, human. The settings on record: CCCP-induced mitochondrial damage. On the procedure: The medium in the cell culture plate was aspirated and the cells were digested after washing once with dPBS. After stopping the digestion with cell medium, the supernatant was removed by centrifugation and the cells were resuspended with 200 μL dPBS. DNeasy®) Blood & Tissue Kit was used to extract DNA from cells. Then, referring to the qRT-PCR system and reaction procedure in Tables 2 and 3, the qRT-PCR reaction was performed using the extracted DNA instead of the cDNA. Data analysis was performed in Prism 7 software using the 2^ΔΔCt process with genomic gene b2M as internal reference for relative quantification of the number of mitochondrial sequences MinArc. Primers for determining intracellular mitochondria number were as follows:
Damaged mitochondria within a cell can be eliminated through an autophagic process named mitochondrial autophagy. Functional defects in autophagy affect the elimination of damaged mitochondria, which in turn disrupts mitochondrial homeostasis in neurons. After inducing mitochondrial damage in wild-type and CLN3^Δex7/8 neurons using the mitochondrial uncoupler CCCP, and then inhibiting the elimination of damaged mitochondria by Baf-A1, the increases of intracellular mitochondrial number (mtDNA/nDNA) after Baf-A1 treatment can represent the intracellular mitochondrial autophagy level.

For test [2], the system named is CLN3^Δex7/8 neurons. As to the kind of experiment: Mitochondrial morphology with OMP25-GFP, laser confocal microscope. The test is classed as cell-based, human. An excerpt: Studies have shown that healthy mitochondria have a short stick-like morphology, with large potential differences across the mitochondrial membrane, which allows efficient generation of ATP that maintains normal cellular function. Damaged mitochondria undergo the process of mitochondrial fission, in which the mitochondria split into a punctate morphology, encapsulated by autophagosome, and transported into lysosomes for degradation. To detect the presence of abnormal mitochondrial morphology in CLN3^Δex7/8 human neurons, a Lentivirus plasmid with green fluorescent protein labeled OMP25 was constructed and used to infect wild-type and CLN3^Δex7/8 human neurons
(§1) To test the effect of compound G on mitochondrial homeostasis in CLN3^Δex7/8 neurons, fluorescently labeled mitochondrial outer membrane protein OMP25-GFP was overexpressed in neurons, and the morphological changes of mitochondria were observed by laser confocal microscope. […] The amount of ATP generation in the same number of neurons was tested using Cell Titer Glo reagent.

The subject of test [3] is CLN3^Δex7/8 neurons. As to the kind of experiment: Intracellular relative ATP content (Cell Titer Glo). Format: cell-based, human. The settings on record: same number of CLN3^Δex7/8 neurons. As for the experimental part:
Neural stem cells or neurons were digested into single cells and were counted using a hemocytometer. The cell suspension was then diluted to the same cell concentration (10^5˜10^6/mL). 100 μL of cell suspension was taken out into a white 96-well analysis plate, and 100 μL of CellTiter-Lumi™ Steady Plus reagent that had been equilibrated to room temperature was added, shaken to mix, and incubated at room temperature for 15 minutes. The chemiluminescence intensity of the sample was then read using a multifunctional microplate reader to indicate the intracellular relative ATP content.
as §1
Background: ATP-based viability assays read luminescence as a measure of living cells.

In test [4] the test system is Cln3 KO mice. As to the kind of experiment: Rotarod test (roller experiment). The settings on record: 4th day of testing. Format: in vivo, mouse. On the procedure: First, the roller experiment was conducted. Treatment of Compound G was continuously provided to the mice after weaned on day 21. When the wild-type mice, the Cln3 KO mice and the Compound G-treated Cln3 KO mice reached 4-5 months of age, roller training for 3 days was conducted, and test was conducted on the 4th day for the motor ability of the mice on the roller.

Test [5] has as its system Cln3 KO mice. Briefly: Open field test. The settings on record: 4-5 months old Cln3 KO mice, within 10 minutes. Format: in vivo, mouse. On the procedure: Open field tests were conducted on mice using blue boxes measuring 50 cm×50 cm×40 cm, with specific steps as follows: the mice to be tested were kept in single cages for more than 1 week to adapt to the environment; the central 25 cm×25 cm area of the box was divided into a central area. The mice were placed gently in the central area facing away from the experimenter, and the video device was started to record the movement track of the mice within 10 minutes; the boxes were thoroughly wiped twice with 75% ethanol to eliminate the odor of the mouse, and then the next mouse was placed for movement track record within 10 minutes; the movement track of mice was analyzed with the Noldus software, and the analysis indicators included the movement speed and total movement distance of mice. The number of times the mice stood upright on their hind legs within 10 minutes was manually counted by the experimenter.
[…] experiments were conducted on 4-5 months old wild-type mice, Cln3 KO mice, and Compound G-treated Cln3 KO mice. The mouse was gently placed in the mine field, it was allowed to move freely, and the route, distance and speed of its movement within 10 minutes were recorded.

For test [6], the system named is mouse tail tip fibroblasts (TTF). Briefly: qRT-PCR of autophagy-related and lysosomal genes in mouse tail tip fibroblasts. Format: cell-based. As for the experimental part: The cells in the cell-culture dish were collected, extracted using AxyPrep Total RNA Mini Prep Kit or Qiagen AxyPrep Total RNA Mini Prep Kit, and the extracted RNA concentration is measured using Nanodrop; the extracted mRNA was reverse transcribed into cDNA by Transgen's EasyScript® One-Step gDNA Removal and cDNA Synthesis SuperMix and the primers used for reverse transcription were Oligo dT primers; the completion of reverse transcription followed by qRT-PCR reaction through PerfectStart™ Green qPCR SuperMix to detect the expression of the target gene; the qRT-PCR reaction was performed on the Bio-Rad CFX96 Real-Time PCR system; see Table 2 and Table 3 for the 20 μL qRT-PCR reaction system and reaction procedures; data analysis was performed in Prism 7 software using the 2^−ΔΔCt process with GAPDH as internal reference for relative quantification of the expression of the target gene.
Compound G was added to the mouse tail tip fibroblasts (TTF), after incubation for 6 hours, mRNA was extracted, and the transcription level of the autophagy-related genes and the lysosomal genes in the cells was detected.
First, lentivirus packaged with control shRNA or FXR shRNA-2 was used to infect the mouse TTF. After treatment with Compound G, mRNA was extracted for detection of gene transcription.
(In general: Quantitative PCR measures a nucleic acid by following its amplification.)

The test system of test [7] is APP-gene mutant human neurons. As to the kind of experiment: Human neuron model of Alzheimer's dementia (Aβ immunofluorescence, Aβ42 ELISA). Format: cell-based. The text has this:
FIG. 44: Compound G reduced Aβ protein storage and secretion levels of toxic Aβ42 in APP mutant neurons. (a) Immunofluorescence staining, for detecting Compound G-treated APP mutant neurons for abnormal accumulation of Aβ protein and (b) statistics of Aβ plaque area, and the scale bar was 50 μm. (c) ELISA tests, for measuring the effect of Compound G on the secretion level of toxic Aβ42 of APP mutant neurons.
The present disclosure detected the therapeutic effect of the treatment of Compound G on Alzheimer's dementia. We directed the differentiation of human embryonic stem cells with mutations in APP gene into human neurons in vitro and constructed an in vitro human neuron model of Alzheimer's dementia.

Each structure is given as a SMILES string. Entries after “also recorded” stand apart in the source; their conditions may differ.

Consider `C/C=C1\C(=O)C[C@H]2[C@@H]3CCC4=CC(=O)CC[C@]4(C)[C@H]3CC[C@]12C` [Compound G, (Z)-guggulsterone], for which the “mitochondrial autophagy (increase of mitochondrial number mtDNA/nDNA after Baf-A1)” value in the test on CLN3^Δex7/8 neurons [1] is reported as “rescue mitochondrial autophagy”. The damaged punctate mitochondria result in the test with CLN3^Δex7/8 neurons [2] is “significantly reduce the occurrence of damaged punctate mitochondria; also recorded: significantly reduce the appearance of the damaged mitochondria”. The “capacity of ATP generation” value with CLN3^Δex7/8 neurons [3] is listed as “significantly increased”. In the test on Cln3 KO mice [4], the “falling time from the roller” value is “significantly extended”. In addition, in the test with Cln3 KO mice [5], the “distance of the movement in the field” value was “improve the distance and the speed of the movement”; the “speed of the movement in the field” value was “improve the distance and the speed of the movement”. Also, the “expression of the autophagy-related genes” value in test [6] (TTF infected with FXR shRNA-2) was “failed to increase”. Moreover, the “transcription level of the autophagy-related genes and the lysosomal genes” value in test [6] (TTF, incubation for 6 hours) is reported as “significantly increase”. In test [6] (control shRNA-infected TTF), the “expression of the autophagy-related genes” value is on record as “significantly increase”. In addition, the “deposition of Aβ plaques” value in test [7] is “significant reduction”. In test [7] (ELISA), the “level of toxic Aβ42 secreted by the cells into the culture medium” value was “significant reduction”.

Source of the values: US20250152605A1, “METHOD AND DRUG FOR TREATING NEURONAL CEROID LIPOFUSCINOSIS” (priority 2021, published 2025).
